How the values were obtained:
[1] = molecular target: T1, Cytochrome P450 11B2, mitochondrial (Homo sapiens, UniProt P19099); assay: Inhibition of CYP11B2 […] cells using [3H]-11-deoxycorticosterone as substrate at 500 nM incubated for 1 hr prior to substrate addition measured after 45 mins by HPLC analysis; format: cell-based; conditions: 0.75 h
T1 sequence (P19099 whole entry): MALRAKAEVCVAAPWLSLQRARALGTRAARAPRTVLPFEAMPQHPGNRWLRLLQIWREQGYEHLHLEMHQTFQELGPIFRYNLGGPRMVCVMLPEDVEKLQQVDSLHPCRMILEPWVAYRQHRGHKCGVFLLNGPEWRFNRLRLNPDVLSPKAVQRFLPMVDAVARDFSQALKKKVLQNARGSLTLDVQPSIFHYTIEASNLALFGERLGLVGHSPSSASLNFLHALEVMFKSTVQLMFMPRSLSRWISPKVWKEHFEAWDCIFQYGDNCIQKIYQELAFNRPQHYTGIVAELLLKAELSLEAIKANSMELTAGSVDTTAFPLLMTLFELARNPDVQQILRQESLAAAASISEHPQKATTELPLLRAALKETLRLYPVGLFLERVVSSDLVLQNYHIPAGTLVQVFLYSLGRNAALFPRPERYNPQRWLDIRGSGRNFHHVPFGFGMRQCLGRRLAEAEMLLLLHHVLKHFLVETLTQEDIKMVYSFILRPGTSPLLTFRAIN

[2] = molecular target: T1, Cytochrome P450 11B2, mitochondrial; assay: Inhibition of CYP11B2 […] cells using [3H]-11-deoxycorticosterone as substrate incubated for 1 hr prior to substrate addition measured after 45 mins by HPLC analysis; format: cell-based
[3] = molecular target: T2, Cytochrome P450 11B1, mitochondrial (Homo sapiens, UniProt P15538); assay: (§1) Inhibition of CYP11B1 […] cells using [3H]-11-deoxycorticosterone as substrate incubated for 1 hr prior to substrate addition measured after 25 mins by HPLC analysis; format: cell-based
T2 sequence (P15538 whole entry): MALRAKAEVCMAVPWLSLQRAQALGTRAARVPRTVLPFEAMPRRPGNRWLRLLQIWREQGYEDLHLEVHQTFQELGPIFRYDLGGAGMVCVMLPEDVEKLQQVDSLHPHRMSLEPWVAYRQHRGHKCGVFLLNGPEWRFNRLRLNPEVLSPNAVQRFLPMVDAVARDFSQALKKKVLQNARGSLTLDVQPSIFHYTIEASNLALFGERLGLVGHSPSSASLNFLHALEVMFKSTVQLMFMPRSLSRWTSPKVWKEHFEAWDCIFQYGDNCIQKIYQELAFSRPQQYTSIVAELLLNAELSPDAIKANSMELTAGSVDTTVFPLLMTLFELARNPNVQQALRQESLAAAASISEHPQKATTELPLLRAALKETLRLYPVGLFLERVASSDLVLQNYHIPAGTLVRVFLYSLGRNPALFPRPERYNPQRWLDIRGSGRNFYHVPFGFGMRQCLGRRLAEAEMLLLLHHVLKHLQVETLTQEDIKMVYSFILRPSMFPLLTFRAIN

CYP17 = molecular target: T3, CYP17 (Homo sapiens, UniProt P05093); assay: Inhibition of human recombinant CYP17 expressed in Escherichia coli using progesterone as substrate at 2 uM; conditions: probe progesterone
T3 sequence (P05093 whole entry): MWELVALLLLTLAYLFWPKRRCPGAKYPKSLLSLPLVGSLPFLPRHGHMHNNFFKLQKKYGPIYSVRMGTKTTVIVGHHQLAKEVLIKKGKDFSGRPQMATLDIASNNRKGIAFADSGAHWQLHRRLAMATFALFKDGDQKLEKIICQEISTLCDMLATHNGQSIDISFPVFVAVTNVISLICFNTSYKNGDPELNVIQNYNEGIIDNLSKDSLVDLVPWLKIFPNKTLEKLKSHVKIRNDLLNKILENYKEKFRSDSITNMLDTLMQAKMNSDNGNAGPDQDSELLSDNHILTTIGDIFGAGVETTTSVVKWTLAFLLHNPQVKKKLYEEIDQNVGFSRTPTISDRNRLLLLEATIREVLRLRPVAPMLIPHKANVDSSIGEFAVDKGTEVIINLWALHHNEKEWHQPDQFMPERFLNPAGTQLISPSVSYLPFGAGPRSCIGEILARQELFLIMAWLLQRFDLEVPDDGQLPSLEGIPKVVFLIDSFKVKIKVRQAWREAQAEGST

CYP19 (aromatase) = molecular target: T4, CYP19 (aromatase) (Homo sapiens, UniProt P11511); assay: Inhibition of human recombinant CYP19 using [1beta-3H]androstenedione as substrate at 500 nM; conditions: recombinant CYP19, probe [1beta-3H]androstenedione
T4 sequence (P11511 whole entry): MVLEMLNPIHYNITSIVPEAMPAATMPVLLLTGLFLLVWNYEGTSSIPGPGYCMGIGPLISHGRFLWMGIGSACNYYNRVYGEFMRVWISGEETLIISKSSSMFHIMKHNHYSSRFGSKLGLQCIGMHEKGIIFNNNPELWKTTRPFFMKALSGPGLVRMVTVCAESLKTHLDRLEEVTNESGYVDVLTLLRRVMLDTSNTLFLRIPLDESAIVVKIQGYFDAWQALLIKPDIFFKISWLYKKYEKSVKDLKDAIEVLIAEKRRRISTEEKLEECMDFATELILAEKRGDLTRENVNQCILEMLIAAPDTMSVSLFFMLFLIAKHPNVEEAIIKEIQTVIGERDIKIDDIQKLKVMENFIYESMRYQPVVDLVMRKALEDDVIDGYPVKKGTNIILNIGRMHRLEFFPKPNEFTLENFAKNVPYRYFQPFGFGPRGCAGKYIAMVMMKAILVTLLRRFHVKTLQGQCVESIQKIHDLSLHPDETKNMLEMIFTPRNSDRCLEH

CYP11B1 = molecular target: T5, CYP11B1 (Homo sapiens, UniProt P15538); assay: as §1; format: cell-based; conditions: human, V79MZ cells expressing CYP11B1, probe [3H]-11-deoxycorticosterone
T5 sequence (P15538 whole entry): T2 sequence (P15538 whole entry)

[4] = molecular target: T6, Cytochrome P450 11B2, mitochondrial (Rattus norvegicus, UniProt P30099); assay: Inhibition of rat CYP11B2 using [3H]-11-deoxycorticosterone as substrate at 2 uM incubated for 1 hr prior to substrate addition measured after 7 hrs by HPLC analysis
T6 sequence (P30099 whole entry): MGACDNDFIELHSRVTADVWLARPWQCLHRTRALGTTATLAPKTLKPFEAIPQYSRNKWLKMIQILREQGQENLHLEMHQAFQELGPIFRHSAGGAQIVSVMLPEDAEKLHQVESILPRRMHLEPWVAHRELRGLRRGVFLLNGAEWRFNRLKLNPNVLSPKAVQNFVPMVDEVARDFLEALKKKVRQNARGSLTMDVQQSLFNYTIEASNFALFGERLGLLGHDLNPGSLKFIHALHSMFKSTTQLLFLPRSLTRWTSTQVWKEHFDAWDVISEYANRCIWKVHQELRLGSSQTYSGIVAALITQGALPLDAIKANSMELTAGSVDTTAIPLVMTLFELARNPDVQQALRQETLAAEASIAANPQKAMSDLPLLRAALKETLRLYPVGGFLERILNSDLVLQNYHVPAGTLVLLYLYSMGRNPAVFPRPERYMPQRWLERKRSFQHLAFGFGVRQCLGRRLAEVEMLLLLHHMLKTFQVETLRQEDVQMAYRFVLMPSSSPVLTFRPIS

[5] = molecular target: T6, Cytochrome P450 11B2, mitochondrial; assay: Inhibition of rat CYP11B2 using [3H]-11-deoxycorticosterone as substrate at 0.5 uM incubated for 1 hr prior to substrate addition measured after 7 hrs by HPLC analysis; conditions: read-out: INH

| SMILES | inhibition at 0.5 µM [1] [%] | IC50 [2] [nM] | IC50 [3] [nM] | inhibition at 2 µM (CYP17) [%] | inhibition at 0.5 µM (CYP19 (aromatase)) [%] | IC50 at 25 min (CYP11B1) [nM] | inhibition at 2 µM [4] [%] | inhibition at 0.5 µM [5] [%] |
| --- | --- | --- | --- | --- | --- | --- | --- | --- |
| CN1C(=O)COc2cc(-c3cccnc3)ccc21 | 98 | 11 | 776 | < 10 | 20 | – | – | – |
| O=C1NCc2cc(-c3cccnc3)ccc2N1 | 72 | 228 | 120 | – | – | – | – | – |
| O=C1CSc2cc(-c3cccnc3)ccc2N1 | – | 12 | – | – | – | 525 | – | – |
| O=C1CCc2cc(-c3cccnc3)ccc2N1 | – | 28 | – | 20 | 31 | 6750 | < 5 | – |
| N#Cc1ccc(C2CCCc3cncn32)cc1 (stereo unspecified) [FADROZOLE] | – | – | – | – | – | – | – | 67 |
